Test results published in patent US11149011B2, “Compounds and methods for IDO and TDO modulation, and indications therefor” (Plexxikon Inc., priority 2018, dated 2021).
Where two headings read alike, the source gives them in different places.

Columns and labels:
[1] = target: T1, IDO1-expressing HEK293 cell clones (Homo sapiens, UniProt P14902); experiment: Cell based kynurenine assay, IDO1-expressing HEK293 cell clones
T1 construct: expressed in transfected cells; host or cells: HEK293
Procedure: (§1) IDO1-expressing or TDO-expressing HEK293 cell clones are generated upon stable transfection of plasmids expressing human IDO or human TDO under the control of CMV promoter. Cells are selected in DMEM media supplemented with 10% fetal bovine serum and 1 mg/ml G418 at 37° C. in a humidified incubator supplied with 5% CO2. The assays are performed as follows.
(§2) Cells were seeded in a 96 well plate in 50 μL of culture media at a density of 2.5×10^4 per well. Serial dilutions of compounds (in total volume of 50 μL culture media) are added into cells. 4 wells containing 0.2% DMSO treated cells serve as high controls and 4 wells containing media only with 0.2% DMSO serve as low controls. After 24 hours of incubation, the supernatant was transferred to a 384 well reaction plate and the kynurenine level determined. The percentage inhibition at individual concentrations relative to high and low controls is calculated. The data is analyzed by using nonlinear regression to generate IC50 values.

IDO1 = target: T2, IDO1 (Homo sapiens, UniProt P14902); experiment: IDO enzymatic assay; type: biochemical
T2 construct: His tag (N); made in house; host or cells: E. coli
Procedure: (§3) Human IDO or TDO with N-terminal His tag is purified in E. coli. The IDO enzymatic assay is performed using 6 nM IDO and 10 μM L-Trp in the presence of 10 mM ascorbic acid, 5 μM methylene blue, 100 nM catalase and 0.01% Tween 20 in 50 mM sodium phosphate buffer (pH 6.5). 19 μL of above reaction mixture is added to wells of 384 well reaction plate containing 1 μL of various concentrations of test compound or DMSO vehicle and incubated for 20 minutes at room temperature. The TDO enzymatic reaction assay is performed using 1 nM TDO and 350 μM L-Trp in the presence of 10 mM ascorbic acid, 0.4 μM methylene blue, 100 nM catalase and 0.01% Tween 20 in 50 mM sodium phosphate buffer (pH 6.5). 19 μL of above reaction mixture is added to wells of 384 well reaction plate containing 1 μL of various concentrations of test compound or DMSO vehicle and incubated for 70 minutes at room temperature. 16 wells containing all the components of reaction mixture and 5% DMSO serve as high control. 16 well containing all the components except enzyme of reaction mixture and 5% DMSO serves as low control. Both IDO and TDO enzymatic reactions are stopped by addition of 4 μL of 30% TCA and incubated 30 minutes at 50° C. to hydrolyze N-formylkynurenine produced by IDO or TDO to kynurenine. Upon measuring the kynurenine level, the percentage inhibition is calculated at individual concentrations relative to high and low controls. The data is analyzed by using nonlinear regression to generate IC50 values.

TDO = target: T3, TDO (Homo sapiens, UniProt P48775); experiment: TDO enzymatic assay; settings: geometric mean; read-out: TDO GMean: IC50 (μM) (Biochemical Assay)
T3 construct: His tag (N); made in house; host or cells: E. coli
Procedure: as §3

[2] = target: T4, TDO-expressing HEK293 cell clones (Homo sapiens, UniProt P48775); experiment: Cell based kynurenine assay, TDO-expressing HEK293 cell clones; settings: HEK293 cells, 24 hours of incubation, geometric mean; read-out: HEK293 TDO Kynurenine GMean IC50 (μM) (Cellular Assay)
T4 construct: expressed in transfected cells; host or cells: HEK293
Procedure: as §1, §2

[3] = comparative examples 4,6 vs 5,7 indazole, cellular potency, read-out: hIDO1
[4] = HEK293 cells, 24 hours of incubation, geometric mean, read-out: HEK293 IDO1 Kynurenine GMean IC50 (μM) (Cellular Assay)
[5] = geometric mean, read-out: IDO1 GMean: IC50 (μM) (Biochemical Assay)

T2 sequence (P14902 whole entry): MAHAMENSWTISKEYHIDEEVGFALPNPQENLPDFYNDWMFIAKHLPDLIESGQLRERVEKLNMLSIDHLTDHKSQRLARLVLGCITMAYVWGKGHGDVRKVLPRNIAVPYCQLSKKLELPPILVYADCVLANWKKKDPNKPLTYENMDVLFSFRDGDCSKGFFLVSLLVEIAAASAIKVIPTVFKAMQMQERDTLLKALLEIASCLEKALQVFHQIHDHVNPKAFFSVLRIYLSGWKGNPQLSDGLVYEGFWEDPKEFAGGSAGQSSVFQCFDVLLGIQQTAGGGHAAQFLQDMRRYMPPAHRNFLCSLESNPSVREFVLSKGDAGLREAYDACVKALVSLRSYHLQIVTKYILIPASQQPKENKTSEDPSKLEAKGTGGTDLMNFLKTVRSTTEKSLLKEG
T1 sequence (P14902 whole entry): as above
T3 sequence (P48775 whole entry): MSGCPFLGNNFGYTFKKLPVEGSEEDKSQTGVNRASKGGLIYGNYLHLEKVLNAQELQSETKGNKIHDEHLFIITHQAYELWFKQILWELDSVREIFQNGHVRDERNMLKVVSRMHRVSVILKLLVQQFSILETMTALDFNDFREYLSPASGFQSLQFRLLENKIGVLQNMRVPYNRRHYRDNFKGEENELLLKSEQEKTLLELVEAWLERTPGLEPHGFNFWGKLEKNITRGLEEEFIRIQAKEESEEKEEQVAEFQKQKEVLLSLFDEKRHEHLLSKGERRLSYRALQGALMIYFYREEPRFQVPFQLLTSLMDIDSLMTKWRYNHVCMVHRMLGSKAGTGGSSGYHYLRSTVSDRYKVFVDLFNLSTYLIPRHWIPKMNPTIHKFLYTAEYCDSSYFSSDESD
T4 sequence (P48775 whole entry): as above

SMILES	IC50 [1, 3] [µM]	IC50 (IDO1; comparative examples 4,6 vs 5,7 indazole, biochemical potency, read-out: IDO1) [µM]	IC50 (TDO) [µM]	IC50 [1, 4] [µM]	IC50 (IDO1; [5]) [µM]	IC50 [2] [µM]
OC1(c2cc(Cl)cc3cn[nH]c23)CC2(CCC2)C1	≥ 10					
OC1(c2cc(Cl)cc3[nH]ncc23)CC2(CCC2)C1	≥ 10					
OC1(c2cc(Cl)cc3[nH]ncc23)CC2(CCOCC2)C1	≥ 10	200				
OC1(c2cc(Cl)cc3cn[nH]c23)CCC(F)(F)CC1 [Compound P-0008, 1-(5-chloro-1H-indazol-7-yl)-4,4-difluorocyclohexan-1-ol]			0.0001 to 10	0.0001 to 10	0.0001 to 10	0.0001 to 10
OC1(c2cc(Cl)cc3cn[nH]c23)CC2(CC2)C1 [Compound P-0011, 5-(5-chloro-1H-indazol-7-yl)spiro[2.3]hexan-5-ol]			0.0001 to 10		0.0001 to 10	0.0001 to 10
CC(C)(C)OC(=O)N1CCC2(CC1)CC(O)(c1cc(Cl)cc3cn[nH]c13)C2 [Compound P-0013, tert-butyl 2-(5-chloro-1H-indazol-7-yl)-2-hydroxy-7-azaspiro[3.5]nonane-7-carboxylate]			0.0001 to 10		0.0001 to 10	0.0001 to 10
OC1(c2cc(Cl)cc3cn[nH]c23)CC2(CCNCC2)C1 [Compound P-0014, 2-(5-chloro-1H-indazol-7-yl)-7-azaspiro[3.5]nonan-2-ol]					0.0001 to 10	
CS(=O)(=O)N1CCC(O)(c2cc(Cl)cc3cn[nH]c23)CC1 [Compound P-0017, 4-(5-chloro-1H-indazol-7-yl)-1-(methylsulfonyl)piperidin-4-ol]			0.0001 to 10		0.0001 to 10	0.0001 to 10
CS(=O)(=O)N1CC(O)(c2cc(Cl)cc3cn[nH]c23)C1 [Compound P-0018, 3-(5-chloro-1H-indazol-7-yl)-1-(methylsulfonyl)azetidin-3-ol]			0.0001 to 10		0.0001 to 10	0.0001 to 10
CC(C)(C1CCN(C(=O)NCc2ccncc2)CC1)[C@H](O)c1cc(Cl)cc2cn[nH]c12 [Compound P-0019, (S)-4-(1-(5-chloro-1H-indazol-7-yl)-1-hydroxy-2-methylpropan-2-yl)-N-(pyridin-4-ylmethyl)piperidine-1-carboxamide]			0.0001 to 10	0.0001 to 10	0.0001 to 10	0.0001 to 10
CC(C)(C1CCN(C(=O)NCCN2CCOCC2)CC1)[C@H](O)c1cc(Cl)cc2cn[nH]c12 [Compound P-0020, (S)-4-(1-(5-chloro-1H-indazol-7-yl)-1-hydroxy-2-methylpropan-2-yl)-N-(2-morpholinoethyl)piperidine-1-carboxamide]			0.0001 to 10	0.0001 to 10	0.0001 to 10	0.0001 to 10
C[C@H](NC(=O)N1CCC(C(C)(C)[C@H](O)c2cc(Cl)cc3cn[nH]c23)CC1)c1ccccn1 [Compound P-0021, 4-((S)-1-(5-chloro-1H-indazol-7-yl)-1-hydroxy-2-methylpropan-2-yl)-N-((S)-1-(pyridin-2-yl)ethyl)piperidine-1-carboxamide]			0.0001 to 10	0.0001 to 10	0.0001 to 10	0.0001 to 10
CC(C)(C1CCN(C(=O)N2CCS(=O)(=O)CC2)CC1)[C@H](O)c1cc(Cl)cc2cn[nH]c12 [Compound P-0022, (S)-(4-(1-(5-chloro-1H-indazol-7-yl)-1-hydroxy-2-methylpropan-2-yl)piperidin-1-yl)(1,1-dioxidothiomorpholino)methanone]			0.0001 to 10	0.0001 to 10	0.0001 to 10	0.0001 to 10
CC(C)(C1CCN(C(=O)NCC2COC2)CC1)[C@H](O)c1cc(Cl)cc2cn[nH]c12 [Compound P-0023, (S)-4-(1-(5-chloro-1H-indazol-7-yl)-1-hydroxy-2-methylpropan-2-yl)-N-(oxetan-3-ylmethyl)piperidine-1-carboxamide]			0.0001 to 10	0.0001 to 10	0.0001 to 10	0.0001 to 10
CC(C)(C1CCN(C(=O)N[C@H]2CCC[C@@H]2O)CC1)[C@H](O)c1cc(Cl)cc2cn[nH]c12 [Compound P-0024, 4-((S)-1-(5-chloro-1H-indazol-7-yl)-1-hydroxy-2-methylpropan-2-yl)-N-((1S,2S)-2-hydroxycyclopentyl)piperidine-1-carboxamide]			0.0001 to 10	0.0001 to 10	0.0001 to 10	0.0001 to 10
CC(C)(C1CCN(C(=O)N[C@H]2CCC[C@H]2O)CC1)[C@H](O)c1cc(Cl)cc2cn[nH]c12 [Compound P-0025, 4-((S)-1-(5-chloro-1H-indazol-7-yl)-1-hydroxy-2-methylpropan-2-yl)-N-((1S,2R)-2-hydroxycyclopentyl)piperidine-1-carboxamide]			0.0001 to 10	0.0001 to 10	0.0001 to 10	0.0001 to 10
CC(C)(C1CCN(C(=O)NCc2cncnc2)CC1)[C@H](O)c1cc(Cl)cc2cn[nH]c12 [Compound P-0026, (S)-4-(1-(5-chloro-1H-indazol-7-yl)-1-hydroxy-2-methylpropan-2-yl)-N-(pyrimidin-5-ylmethyl)piperidine-1-carboxamide]			0.0001 to 10	0.0001 to 10	0.0001 to 10	0.0001 to 10
CC(C)(C1CCN(C(=O)NCc2ncccn2)CC1)[C@H](O)c1cc(Cl)cc2cn[nH]c12 [Compound P-0027, (S)-4-(1-(5-chloro-1H-indazol-7-yl)-1-hydroxy-2-methylpropan-2-yl)-N-(pyrimidin-2-ylmethyl)piperidine-1-carboxamide]			0.0001 to 10	0.0001 to 10	0.0001 to 10	0.0001 to 10
C[C@@H](NC(=O)N1CCC(C(C)(C)[C@H](O)c2cc(Cl)cc3cn[nH]c23)CC1)c1ccccn1 [Compound P-0028, 4-((S)-1-(5-chloro-1H-indazol-7-yl)-1-hydroxy-2-methylpropan-2-yl)-N-((R)-1-(pyridin-2-yl)ethyl)piperidine-1-carboxamide]			0.0001 to 10	0.0001 to 10	0.0001 to 10	0.0001 to 10
CC(=O)N1CCC(C(F)(F)C(O)c2c(F)c(Cl)cc3cn[nH]c23)CC1 (stereo not shown) [Compound P-0056, 1-(4-(2-(5-chloro-6-fluoro-1H-indazol-7-yl)-1,1-difluoro-2-hydroxyethyl)piperidin-1-yl)ethan-1-one]						> 10
O=S1(=O)CC2(CC(O)(c3cc(Cl)cc4cn[nH]c34)C2)C1 [Compound P-0057, 6-(5-chloro-1H-indazol-7-yl)-6-hydroxy-2-thiaspiro[3.3]heptane 2,2-dioxide]			0.0001 to 10		0.0001 to 10	0.0001 to 10
CC(C)(C1CCN(C(=O)[C@@H]2CCCN2)CC1)[C@H](O)c1cc(Cl)cc2cn[nH]c12 [Compound P-0138, (4-((S)-1-(5-chloro-1H-indazol-7-yl)-1-hydroxy-2-methylpropan-2-yl)piperidin-1-yl)((S)-1λ^2-pyrrolidin-2-yl)methanone]				0.0001 to 10		0.0001 to 10
CC(C)(C1CCN(C(=O)[C@H]2CCCN2)CC1)[C@H](O)c1cc(Cl)cc2cn[nH]c12 [Compound P-0139, (4-((S)-1-(5-chloro-1H-indazol-7-yl)-1-hydroxy-2-methylpropan-2-yl)piperidin-1-yl)((R)-1λ^2-pyrrolidin-2-yl)methanone]				0.0001 to 10		0.0001 to 10
CC(C)(C1CCN(C(=O)[C@@H]2CCNC2)CC1)[C@H](O)c1cc(Cl)cc2cn[nH]c12 [Compound P-0140, (4-((S)-1-(5-chloro-1H-indazol-7-yl)-1-hydroxy-2-methylpropan-2-yl)piperidin-1-yl)((R)-1λ^2-pyrrolidin-3-yl)methanone]				0.0001 to 10		> 10
CC(C)(C1CCN(C(=O)[C@H]2CCNC2)CC1)[C@H](O)c1cc(Cl)cc2cn[nH]c12 [Compound P-0141, (4-((S)-1-(5-chloro-1H-indazol-7-yl)-1-hydroxy-2-methylpropan-2-yl)piperidin-1-yl)((S)-1λ^2-pyrrolidin-3-yl)methanone]				0.0001 to 10		> 10
